In PubChem BioAssay (NCI):
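96-well plates; 48 h exposure; 5 concentrations. Endpoints by linear interpolation between flanking doses. Not reached: highest tested concentration assigned. GI50 marks 50% less growth. The concentration for full growth arrest is given as TGI.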

Tests used:
Experiment in all cases: NCI tumour cell line growth inhibition, 48 h
DMS 114 small cell lung = test system: DMS 114 small cell lung
LXFL 529 NSCLC = test system: LXFL 529 NSCLC
XF 498 CNS = test system: XF 498 CNS
DMS 273 small cell lung = test system: DMS 273 small cell lung
DLD-1 colon = test system: DLD-1 colon
HOP-18 NSCLC = test system: HOP-18 NSCLC
KM20L2 colon = test system: KM20L2 colon
RXF-631 renal = test system: RXF-631 renal
P388/ADR leukemia = test system: P388/ADR leukemia
SN12K1 renal = test system: SN12K1 renal
P388 leukemia = test system: P388 leukemia

Row | Structure (SMILES) | TGI (DMS 114 small cell lung) [µM] | TGI (LXFL 529 NSCLC) [µM] | TGI (XF 498 CNS) [µM] | TGI (DMS 273 small cell lung) [µM] | TGI (DLD-1 colon) [µM] | TGI (HOP-18 NSCLC) [µM] | TGI (KM20L2 colon) [µM] | TGI (RXF-631 renal) [µM] | TGI (P388/ADR leukemia) [µM] | TGI (SN12K1 renal) [µM] | TGI (P388 leukemia) [µM] | GI50 (P388 leukemia) [mM]
1 | CCCN(CCC)c1c([N+](=O)[O-])cc(C(=O)N(C)C)cc1[N+](=O)[O-] | > 100 | > 100 | > 100 | > 100 | > 100 | – | – | – | – | – | – | –
2 | CC(C)(Oc1ccc(C(=O)c2ccc(Cl)cc2)cc1Cl)C(=O)N1CCN(c2ccccc2)CC1 | > 100 | > 100 | > 100 | > 100 | > 100 | > 100 | > 100 | – | – | – | – | –
3 | Oc1ccccc1C=Nc1ccccc1N=Cc1ccccc1O | > 100 | > 100 | > 100 | > 100 | – | – | > 100 | – | – | – | – | –
4 | Cc1ccc(Nc2ccc(Nc3ccc(C)cc3S(=O)(=O)O)c3c2C(=O)c2ccccc2C3=O)c(S(=O)(=O)O)c1 | > 100 | > 100 | – | > 100 | > 100 | > 100 | > 100 | > 100 | – | – | – | –
5 | COc1c(Cl)c(Cl)c(OC)c2c1C(=O)C=CC2=O | 29.7 | 29.3 | 31 | 31.5 | 29.5 | > 100 | > 100 | – | – | – | – | –
6 | CC1(CO)C(=O)OC12CCCCC2 (centres undefined) | > 100 | > 100 | > 100 | > 100 | > 100 | – | – | > 100 | – | – | – | –
7 | CCOC(=O)CN(Cc1ccccc1)Cc1c(C(=O)c2ccccc2)c2ccccc2n1C(=O)c1ccccc1 | > 100 | > 100 | > 100 | > 100 | > 100 | – | > 100 | – | – | – | – | –
8 | O=c1cc2cc(O)[nH]c(=O)c2c(O)[nH]1 | > 100 | > 100 | > 100 | > 100 | > 100 | – | > 100 | > 100 | – | – | – | –
9 | CC(=O)OC1C(O)C(C)OC(OC(=O)C2CCC3C(C2)OC2(CC(OC(=O)/C=C/c4ccccc4)C(C)CO2)C32CO2)C1OC1OC(C)C(O)C(O)C1O (centres undefined) | 0.0563 | – | 0.126 | 0.151 | 5.69 | 0.585 | 1.42 | – | 113 | 0.0828 | 1.39 | –
10 | Cc1oc2c(C)c3oc(=O)cc(C)c3cc2c1CN | > 100 | > 100 | 73.8 | – | > 100 | > 100 | > 100 | 90.4 | – | – | – | –
11 | COc1cc(C(CC(OC)OC)=C(C#N)C#N)cc(OC)c1OC | 87.6 | > 100 | – | 27.6 | 13.7 | – | 69.4 | – | – | – | – | –
12 | NC(CNc1ccc(O)cc1)C(=O)O (centres undefined) | > 100 | > 100 | 29.1 | > 100 | > 100 | > 100 | > 100 | > 100 | – | – | – | –
13 | C/C(=C/c1c(C)[nH]c(=O)[nH]c1=O)C(=O)O | > 1380 | – | > 1370 | > 1380 | > 1380 | > 1380 | > 1370 | – | 1370 | > 1380 | > 1370 | > 1.37
